Measurements taken from paper PMC5698418 (Nature Communications, 2017).

Columns and labels:
[1] = test system: BDNF-induced nuclear Arc expression in primary cortical neurons; assay: Chemogenomic screen: high-content image-based assay of BDNF-induced nuclear Arc expression (96-well); format: cell-based, mouse
Method in brief: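 DIV13 mouse primary cortical neurons (30,000 cells/well) are treated with compound at 16.7 µM and BDNF, in three biological replicates. Arc and acetyl-H3K9 are immunostained and imaged at ×40, and nuclear Arc signal is quantified automatically using acetyl-H3K9 as the nuclear mask.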

acetyl-H3K9 = assay: Acetyl-H3K9 immunofluorescence in neuronal nuclei (multiplexed in screen); format: cell-based, mouse; details: screen, 16.7 µM
Method in brief: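 DIV13 mouse primary cortical neurons treated with library compounds and BDNF, then immunostained for Arc and acetyl-H3K9. Imaged at ×40 by automated microscopy; acetyl-H3K9 signal served as nuclear mask for quantifying nuclear Arc immunofluorescence.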

HDAC1 = target: T1, HDAC1 (Homo sapiens, UniProt Q13547); assay: Biochemical HDAC assay (BPS Bioscience), HDAC1; details: 25 µM
T1 construct: purchased BPS Bioscience (San Diego, CA), contract assay service
T1 sequence (Q13547 whole entry): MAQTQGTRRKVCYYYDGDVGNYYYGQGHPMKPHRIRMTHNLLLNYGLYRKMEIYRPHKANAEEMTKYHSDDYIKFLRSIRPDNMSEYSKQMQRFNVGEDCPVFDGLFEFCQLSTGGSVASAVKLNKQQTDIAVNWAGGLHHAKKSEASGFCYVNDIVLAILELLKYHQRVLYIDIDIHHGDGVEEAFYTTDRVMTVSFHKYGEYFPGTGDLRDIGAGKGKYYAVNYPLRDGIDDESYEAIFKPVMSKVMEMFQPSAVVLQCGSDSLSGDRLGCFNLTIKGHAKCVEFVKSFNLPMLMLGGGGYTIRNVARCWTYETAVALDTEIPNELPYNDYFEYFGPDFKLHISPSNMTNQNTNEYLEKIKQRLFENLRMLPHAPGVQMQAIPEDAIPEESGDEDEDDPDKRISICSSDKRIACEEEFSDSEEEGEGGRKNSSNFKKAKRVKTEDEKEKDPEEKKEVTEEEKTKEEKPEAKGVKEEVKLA

HDAC8 = target: T2, HDAC8 (Homo sapiens, UniProt Q9BY41); assay: Biochemical HDAC assay (BPS Bioscience), HDAC8; details: 25 µM
T2 construct: purchased BPS Bioscience (San Diego, CA), contract assay service
T2 sequence (Q9BY41 whole entry): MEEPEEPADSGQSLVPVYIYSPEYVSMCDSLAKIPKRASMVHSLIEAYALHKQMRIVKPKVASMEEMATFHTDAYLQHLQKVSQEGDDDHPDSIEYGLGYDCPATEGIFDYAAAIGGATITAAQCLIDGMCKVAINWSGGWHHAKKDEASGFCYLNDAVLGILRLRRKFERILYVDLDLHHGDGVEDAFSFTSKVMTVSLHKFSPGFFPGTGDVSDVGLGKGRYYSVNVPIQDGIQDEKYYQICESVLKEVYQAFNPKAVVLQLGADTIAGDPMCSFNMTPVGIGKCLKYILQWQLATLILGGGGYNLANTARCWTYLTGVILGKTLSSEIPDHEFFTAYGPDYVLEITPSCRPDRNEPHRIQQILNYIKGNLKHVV

HDAC5 = target: T3, HDAC5 (Homo sapiens, UniProt Q9UQL6); assay: Biochemical HDAC assay (BPS Bioscience), HDAC5; details: 25 µM
T3 construct: purchased BPS Bioscience (San Diego, CA), contract assay service
T3 sequence (Q9UQL6 whole entry): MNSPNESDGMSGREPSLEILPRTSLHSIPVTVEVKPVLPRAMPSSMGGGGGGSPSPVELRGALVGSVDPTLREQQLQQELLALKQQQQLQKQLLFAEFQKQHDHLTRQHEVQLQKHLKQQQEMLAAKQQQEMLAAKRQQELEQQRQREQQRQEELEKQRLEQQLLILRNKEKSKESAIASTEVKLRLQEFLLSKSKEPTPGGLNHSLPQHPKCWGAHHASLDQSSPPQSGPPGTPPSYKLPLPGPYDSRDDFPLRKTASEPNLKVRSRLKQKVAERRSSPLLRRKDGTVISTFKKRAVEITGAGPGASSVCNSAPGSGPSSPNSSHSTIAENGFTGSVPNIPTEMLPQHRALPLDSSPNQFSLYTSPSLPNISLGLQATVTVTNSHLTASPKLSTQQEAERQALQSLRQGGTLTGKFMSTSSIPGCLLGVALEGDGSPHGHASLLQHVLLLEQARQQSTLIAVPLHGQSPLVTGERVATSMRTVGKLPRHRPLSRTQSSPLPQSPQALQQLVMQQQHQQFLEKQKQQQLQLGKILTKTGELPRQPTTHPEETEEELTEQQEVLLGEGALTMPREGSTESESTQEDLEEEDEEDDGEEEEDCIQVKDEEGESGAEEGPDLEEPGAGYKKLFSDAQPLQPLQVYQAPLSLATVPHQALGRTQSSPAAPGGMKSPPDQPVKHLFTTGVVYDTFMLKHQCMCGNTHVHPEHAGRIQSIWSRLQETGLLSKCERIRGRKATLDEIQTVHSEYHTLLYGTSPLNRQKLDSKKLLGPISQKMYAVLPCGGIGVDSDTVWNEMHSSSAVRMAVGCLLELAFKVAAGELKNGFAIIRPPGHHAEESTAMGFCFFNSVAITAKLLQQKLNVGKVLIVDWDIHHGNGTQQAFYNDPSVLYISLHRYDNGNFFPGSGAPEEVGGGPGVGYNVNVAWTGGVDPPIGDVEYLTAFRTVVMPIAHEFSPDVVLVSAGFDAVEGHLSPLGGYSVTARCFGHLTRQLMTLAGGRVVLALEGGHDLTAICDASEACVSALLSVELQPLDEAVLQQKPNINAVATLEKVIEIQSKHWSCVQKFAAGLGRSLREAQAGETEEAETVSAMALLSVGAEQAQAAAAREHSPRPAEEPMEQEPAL

[2] = test system: Arc protein in dentate gyrus; assay: Arc immunohistochemistry in dentate gyrus after intraperitoneal injection; format: in vivo, mouse; details: 30 mg kg−1 i.p., 3 h
Procedure: Male mice (C57BL/6 strain) were received as 6-weeks old and habituated to their home cage as trios for 2 weeks before conducting the experiments. During the habituation time period, mice were kept on a light–dark cycle with minimal disruption and unrestricted access to food and water. On experiment day, mice from the same cage were taken and randomly subjected to intraperitoneal injection of vehicle (25% Kolliphor EL (Sigma-Aldrich, C5135), 10% DMSO) or AK-7 (30 mg kg^−1) solution and immediately placed back in their home cage or transferred to a novel environment. The novel environment consisted of a large cage placed in a different room with new bedding, food, as well as multiple objects like tunnel, running wheel, igloo, and aspen labyrinth that the mice could freely explore. About 3 h after the injection procedure, mice were rapidly anesthetized and killed by decapitation. Finally, brain tissues were harvested and flash frozen in a dry ice/isopentane bath and stored at −80 °C. All experiments were approved by the Animal Care and Use Committee of the Massachusetts General Hospital and carried out according to institutional guidelines.
Coronal sections containing the hippocampus from all animals were cut from the frozen blocks at a thickness of 20 µm with a CM3050 cryostat (Leica, Nussloch, Germany). […]
The following approach was adopted to quantify the number of Arc-positive cell bodies and average acetyl-H3K9 immunostaining pixel intensity in dentate gyrus. First, complete dentate gyrus overlapping grayscale images of DAPI fluorescence and Arc or acetyl-H3K9 immunostaining were collected using a ×20 objective and Nikon Eclipse 90i upright microscope equipped with a motorized stage and image stitching capability. Second, the boundary of the dentate gyrus based on the DAPI fluorescence was determined in each image set with the ImageJ wand tool. Finally, this information was used for image segmentation and quantification of Arc-positive cell bodies or average acetyl-H3K9 immunostaining pixel intensity within each dentate gyrus images. […]

[3] = parameters: method as in PMID 21370928, PMID 23200855; details: ref [34],[42]; cited from earlier work

In the case of `O=C(Nc1cccc(Br)c1)c1cccc(S(=O)(=O)N2CCCCCC2)c1` [AK-7], the “rank among potentiators of BDNF-induced nuclear Arc expression in screen” value ([1]; 16.7 µM, three biological replicates) was “first”, the “Percentage of cell with nuclear Arc immunostaining above 2σ threshold” value ([1]; chemogenomic (SMART) screen, BDNF-induced nuclear Arc expression, primary cortical neurons, BDNF control 19.5) was 61.6% and the “Fold-change — Normalized to DMSO control (BDNF)” value ([1]; nuclear Arc-positive cells relative to DMSO + BDNF control, negative values = decrease) was 3.2 fold. For the same molecule, the “impact on acetyl-H3K9 immunofluorescence (Z-score)” value (acetyl-H3K9) was “increasing effect of intermediate intensity”, the “inhibitory activity toward HDAC1” value (HDAC1) was “failed to show any inhibitory activity” and the “inhibitory activity toward HDAC8” value (HDAC8) was “failed to show any inhibitory activity”. The “inhibitory activity toward HDAC5” value (HDAC5) was “failed to show any inhibitory activity”, the “Arc immunofluorescence signal intensity in cell bodies vs vehicle” value ([2]; home cage) was “not statistically different” and the “number of neurons with prominent Arc immunostaining in dentate gyrus vs vehicle” value ([2]; home cage) was “more than eight times”. For the same molecule, the “number of Arc immunopositive cell bodies in dentate gyrus vs vehicle” value ([2]; novel environment) was “did not led to more Arc immunopositive cell bodies” and the “blood–brain barrier crossing” value [3] was “can efficiently cross the blood–brain barrier”.
